Results as given in PubChem BioAssay (NCI).
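At the GI50, growth is halved. TGI denotes the concentration required for complete inhibition of growth.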

What was measured:
Experiment in all cases: NCI anticancer screen, dose series, 384-well format
SNB-75 CNS = test system: SNB-75 CNS
HCT-116 colon = test system: HCT-116 colon
KM12 colon = test system: KM12 colon
LOX IMVI melanoma = test system: LOX IMVI melanoma
RXF 393 renal = test system: RXF 393 renal
NCI-H23 lung = test system: NCI-H23 lung
HOP-92 NSCLC = test system: HOP-92 NSCLC
HCC-2998 colon = test system: HCC-2998 colon
OVCAR-3 ovarian = test system: OVCAR-3 ovarian
PC-3 prostate = test system: PC-3 prostate
OVCAR-4 ovarian = test system: OVCAR-4 ovarian
DU-145 prostate = test system: DU-145 prostate
EKVX NSCLC = test system: EKVX NSCLC
SF-539 CNS = test system: SF-539 CNS
SK-MEL-28 melanoma = test system: SK-MEL-28 melanoma
CCRF-CEM leukemia = test system: CCRF-CEM leukemia
SN12C renal = test system: SN12C renal
UO-31 renal = test system: UO-31 renal
HOP-62 NSCLC = test system: HOP-62 NSCLC
OVCAR-8 ovarian = test system: OVCAR-8 ovarian
HCT-15 colon = test system: HCT-15 colon
NCI-H522 lung = test system: NCI-H522 lung
MALME-3M melanoma = test system: MALME-3M melanoma
SK-MEL-5 melanoma = test system: SK-MEL-5 melanoma
786-0 renal = test system: 786-0 renal
MDA-MB-231 breast = test system: MDA-MB-231 breast
CAKI-1 renal = test system: CAKI-1 renal
OVCAR-5 ovarian = test system: OVCAR-5 ovarian
NCI/ADR-RES ovarian = test system: NCI/ADR-RES ovarian
NCI-H322M lung = test system: NCI-H322M lung
MDA-MB-435 melanoma = test system: MDA-MB-435 melanoma
UACC-257 melanoma = test system: UACC-257 melanoma
U251 glioblastoma = test system: U251 glioblastoma
NCI-H226 lung = test system: NCI-H226 lung
MCF7 breast = test system: MCF7 breast
A498 renal = test system: A498 renal
RPMI-8226 leukemia = test system: RPMI-8226 leukemia
SW-620 colon = test system: SW-620 colon
IGROV1 ovarian = test system: IGROV1 ovarian
MDA-MB-468 breast = test system: MDA-MB-468 breast
HS 578T breast = test system: HS 578T breast
A549 NSCLC = test system: A549 NSCLC
K-562 leukemia = test system: K-562 leukemia
M14 melanoma = test system: M14 melanoma
COLO 205 colon = test system: COLO 205 colon
NCI-H460 NSCLC = test system: NCI-H460 NSCLC
ACHN renal = test system: ACHN renal
SF-295 CNS = test system: SF-295 CNS
SK-OV-3 ovarian = test system: SK-OV-3 ovarian
TK-10 renal = test system: TK-10 renal
SF-268 CNS = test system: SF-268 CNS
MOLT-4 leukemia = test system: MOLT-4 leukemia
HT29 colon = test system: HT29 colon
T-47D breast = test system: T-47D breast
SNB-19 CNS = test system: SNB-19 CNS
BT-549 breast = test system: BT-549 breast
UACC-62 melanoma = test system: UACC-62 melanoma

In the case of `COc1ncc(Nc2ncc([C@@H](C)N3CCN(S(C)(=O)=O)CC3)cc2-c2nc(C)nc(N)n2)cc1F`, the GI50 (SNB-75 CNS) is reported as less than 0.01 µM, the TGI (SNB-75 CNS) is reported as 0.0481 µM and the GI50 (HCT-116 colon) is reported as 2.79 µM. The TGI (HCT-116 colon) was greater than 100 µM, the GI50 (KM12 colon) was 1.36 µM and the TGI (KM12 colon) was greater than 100 µM. The GI50 (LOX IMVI melanoma) was 0.552 µM, the TGI (LOX IMVI melanoma) was 5.65 µM and the GI50 (RXF 393 renal) was 0.0125 µM. For the same compound, the TGI (RXF 393 renal) was 0.0763 µM, the GI50 (NCI-H23 lung) was 1.95 µM and the TGI (NCI-H23 lung) was greater than 100 µM. It also gave a GI50 (HOP-92 NSCLC) of 0.0246 µM, a TGI (HOP-92 NSCLC) of 1.22 µM and a GI50 (HCC-2998 colon) of 1.23 µM. The TGI (HCC-2998 colon) was 38.2 µM, the GI50 (OVCAR-3 ovarian) was 0.061 µM and the TGI (OVCAR-3 ovarian) was 3.1 µM. For the same compound, the GI50 (PC-3 prostate) was 0.0336 µM, the TGI (PC-3 prostate) was 18.6 µM and the GI50 (OVCAR-4 ovarian) was 2.25 µM. It also gave a TGI (OVCAR-4 ovarian) greater than 100 µM, a GI50 (DU-145 prostate) of 0.651 µM and a TGI (DU-145 prostate) greater than 100 µM. For the same compound, the GI50 (EKVX NSCLC) was 0.0733 µM, the TGI (EKVX NSCLC) was 5.23 µM and the GI50 (SF-539 CNS) was 0.179 µM. It also gave a TGI (SF-539 CNS) of 4.15 µM, a GI50 (SK-MEL-28 melanoma) of 0.0896 µM and a TGI (SK-MEL-28 melanoma) of 6.79 µM. It also gave a GI50 (CCRF-CEM leukemia) of 0.0891 µM, a TGI (CCRF-CEM leukemia) of 1.55 µM and a GI50 (SN12C renal) of 0.0317 µM. The TGI (SN12C renal) was 8.95 µM, the GI50 (UO-31 renal) was 0.187 µM and the TGI (UO-31 renal) was 7.21 µM. The GI50 (HOP-62 NSCLC) was 1.94 µM, the TGI (HOP-62 NSCLC) was 83.7 µM and the GI50 (OVCAR-8 ovarian) was 1.44 µM. For the same compound, the TGI (OVCAR-8 ovarian) was greater than 100 µM, the GI50 (HCT-15 colon) was 0.465 µM and the TGI (HCT-15 colon) was greater than 100 µM. The GI50 (NCI-H522 lung) was 1.63 µM, the TGI (NCI-H522 lung) was 19.5 µM and the GI50 (MALME-3M melanoma) was 1.04 µM. For the same compound, the TGI (MALME-3M melanoma) was greater than 100 µM, the GI50 (SK-MEL-5 melanoma) was 1.03 µM and the TGI (SK-MEL-5 melanoma) was 11.9 µM. It also gave a GI50 ([…]-0 renal) of 0.076 µM, a TGI (786-0 renal) of 3.77 µM and a GI50 (MDA-MB-231 breast) of 2.27 µM. It also gave a TGI (MDA-MB-231 breast) greater than 100 µM, a GI50 (CAKI-1 renal) of 0.023 µM and a TGI (CAKI-1 renal) of 18.1 µM. For the same compound, the GI50 (OVCAR-5 ovarian) was 0.16 µM, the TGI (OVCAR-5 ovarian) was 16.8 µM and the GI50 (NCI/ADR-RES ovarian) was 3.39 µM. It also gave a TGI (NCI/ADR-RES ovarian) greater than 100 µM, a GI50 (NCI-H322M lung) of 0.367 µM and a TGI (NCI-H322M lung) of 27.9 µM. It also gave a GI50 (MDA-MB-435 melanoma) of 2.31 µM, a TGI (MDA-MB-435 melanoma) greater than 100 µM and a GI50 (UACC-257 melanoma) of 0.488 µM. It also gave a TGI (UACC-257 melanoma) of 60.5 µM, a GI50 (U251 glioblastoma) of 1.01 µM and a TGI (U251 glioblastoma) greater than 100 µM. The GI50 (NCI-H226 lung) was 1.3 µM, the TGI (NCI-H226 lung) was 13.7 µM and the GI50 (MCF7 breast) was 0.0407 µM. The TGI (MCF7 breast) was 27.6 µM, the GI50 (A498 renal) was 0.0322 µM and the TGI (A498 renal) was 0.337 µM. It also gave a GI50 (RPMI-8226 leukemia) of 2.8 µM, a TGI (RPMI-8226 leukemia) of 8.44 µM and a GI50 (SW-620 colon) of 3.8 µM. For the same compound, the TGI (SW-620 colon) was greater than 100 µM, the GI50 (IGROV1 ovarian) was less than 0.01 µM and the TGI (IGROV1 ovarian) was 0.0433 µM. For the same compound, the GI50 (MDA-MB-468 breast) was less than 0.01 µM, the TGI (MDA-MB-468 breast) was 0.16 µM and the GI50 (HS 578T breast) was 0.017 µM. For the same compound, the TGI (HS 578T breast) was 0.333 µM, the GI50 (A549 NSCLC) was 0.138 µM and the TGI (A549 NSCLC) was 11.9 µM. For the same compound, the GI50 (K-562 leukemia) was 4.54 µM, the TGI (K-562 leukemia) was greater than 100 µM and the GI50 (M14 melanoma) was 1.28 µM. It also gave a TGI (M14 melanoma) greater than 100 µM, a GI50 (COLO 205 colon) of 0.275 µM and a TGI (COLO 205 colon) of 67.8 µM. For the same compound, the GI50 (NCI-H460 NSCLC) was 0.0711 µM, the TGI (NCI-H460 NSCLC) was greater than 100 µM and the GI50 (ACHN renal) was 0.1 µM. The TGI (ACHN renal) was greater than 100 µM, the GI50 (SF-295 CNS) was 0.0498 µM and the TGI (SF-295 CNS) was 2.1 µM. For the same compound, the GI50 (SK-OV-3 ovarian) was 0.0965 µM, the TGI (SK-OV-3 ovarian) was 10.4 µM and the GI50 (TK-10 renal) was 0.294 µM. The TGI (TK-10 renal) was 7.94 µM, the GI50 (SF-268 CNS) was less than 0.01 µM and the TGI (SF-268 CNS) was 0.0889 µM. The GI50 (MOLT-4 leukemia) was 0.015 µM, the TGI (MOLT-4 leukemia) was 0.12 µM and the GI50 (HT29 colon) was 0.139 µM. The TGI (HT29 colon) was greater than 100 µM, the GI50 (T-47D breast) was less than 0.01 µM and the TGI (T-47D breast) was 0.0426 µM. It also gave a GI50 (SNB-19 CNS) of 4.73 µM, a TGI (SNB-19 CNS) greater than 100 µM and a GI50 (BT-549 breast) of 0.0533 µM. It also gave a TGI (BT-549 breast) of 6.33 µM, a GI50 (UACC-62 melanoma) of 0.0304 µM and a TGI (UACC-62 melanoma) of 1.45 µM.
